≈ marks a conversion by molar mass, not a printed value.
How the values were obtained:
[1] = tested on: Staphylococcus aureus ATCC 700699 (MRSA); assay: minimum inhibitory concentration; extreme values may be limits of the assay
In short: (§1)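 Following CLSI guidance, methicillin-susceptible and methicillin-resistant Staphylococcus aureus were exposed to compounds from 0 to 100 µM in 96-well plates for 24 h at 37°C, then to 30 µl of 0.015% resazurin for 2–4 h. The minimum inhibitory concentration was read as the lowest concentration with no change from blue to pink. Testing was done at least twice in triplicate with positive controls on each plate.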

[2] = tested on: Staphylococcus aureus ATCC 29213 (MSSA); assay: as above
In short: as §1

Structure (SMILES) | minimum inhibitory concentration [1] [µM] | minimum inhibitory concentration [2] [µM]
O=C(N[C@H](Cc1ccccc1)C(=O)Nc1ccccc1N1CCOCC1)c1cccs1 | > 50 | > 50
Cc1cc2ccccc2n1CC(=O)N1CC(C(=O)N2CCCCC2)Oc2ccccc21 (configuration not stated) | > 50 | > 50
Cc1[nH]c2ccccc2c1C(c1cccs1)N1CCN(C)CC1 (configuration not stated) | 50 (≈ 16.3 µg/mL) | 50 (≈ 16.3 µg/mL)
c1ccc(Oc2ccc(-c3cc(N4CCNCC4)[nH]n3)cc2)cc1 | > 50 | > 50
Clc1cccc(CO[C@H]2CCc3ccccc3[C@@H]2n2ccnn2)c1 | > 50 | > 50
Cc1cc(C)c2cc(C(=O)NC3CCCCCCC3)[nH]c2c1 | > 50 | > 50
O=C(NCc1ccoc1)N1CCN(Cc2ccc3c(c2)OCO3)CC1 | > 50 | > 50
CCOc1ccc2cc(-c3nn(C(C)(C)C)c(N)c3C(N)=O)cnc2c1 | > 50 | > 50
Nc1nccc2ccc(Oc3ccncc3)cc12 | 50 (≈ 11.9 µg/mL) | 50 (≈ 11.9 µg/mL)
COc1ccc(N(CCc2cccc(C)n2)C(C)=O)cc1 | > 50 | > 50
CC(C)(C)[C@H]1CC[C@H](CC2=C(O)C(=O)c3ccccc3C2=O)CC1 | > 50 | > 50
N#Cc1nc(-c2ccccc2)oc1S(=O)(=O)c1ccc(Cl)cc1 | > 50 | > 50
CNCCC(Oc1ccc(C(F)(F)F)cc1)c1ccccc1 (configuration not stated) | > 50 | > 50
COc1cc(NC(C)CCCN)c2ncccc2c1 (configuration not stated) | > 50 | > 50
Cn1ncc2c(N3CCOCC3)nc(NCCc3c[nH]c4ccccc34)nc21 | > 50 | > 50
CCS(=O)(=O)N(Cc1ccco1)Cc1cc2ccc(C)cc2nc1O | > 50 | > 50
CN1CCN(c2nccc3[nH]c(-c4cccc(F)c4)cc23)CC1 | > 50 | > 50
Nc1nccc2ccc(-c3ccc4nccn4c3)cc12 | > 50 | > 50
Nc1cccnc1Nc1ccc(Cl)cc1 | > 50 | > 50
Cc1noc(C)c1C(=O)N1CCCC(c2[nH]c3c(C)cccc3c2-c2ccncc2)C1 (configuration not stated) | > 50 | > 50
COc1ccccc1CNC(=O)c1cc(C2CC2)nc2c1cnn2C(C)C | > 50 | > 50
COc1cc(Br)cc2cc(C(=O)Nc3cccc(C(F)(F)F)c3)c(=O)oc12 | > 50 | > 50
CC(C)n1ncc2c(C(=O)NCC(c3cccs3)N3CCOCC3)cc(-c3ccccc3)nc21 (configuration not stated) | > 50 | > 50
COc1cccc(NC(=O)c2c(NC(=O)c3cccnc3)sc3c2CCC3)c1 | > 50 | > 50

Structure (SMILES) | minimum inhibitory concentration [1] [µM] | minimum inhibitory concentration [2] [µM]
COc1cccc2c(C)nc(N=C(N)N)nc12 | > 50 | > 50
c1cncc(NCc2ccc(-c3cc4ccncc4cc3OC3CCNCC3)s2)c1 | > 50 | > 50
FC(F)(F)c1nnc2ccc(Cl)nn12 | > 50 | > 50
CC1COC2(CCN(c3nc(=O)c4cc(C(F)(F)F)cc([N+](=O)[O-])c4s3)CC2)O1 (configuration not stated) | > 50 | > 50
O=C(Nc1ccc(N2CCNCC2)nc1)c1oc(-c2ccccc2)nc1C(F)(F)F | > 50 | > 50
O=C(Nc1ccc2c(c1)B(O)OC2)c1ccccc1C(F)(F)F | > 50 | > 50
CC1=Nc2ccc(Cl)cc2C(c2ccccc2)N1CCNC(=O)CN(C)C (configuration not stated) | > 50 | > 50
COC(=O)Nc1nc2cc(C(=O)c3ccccc3)ccc2[nH]1 | > 50 | > 50
Nc1ncnc2c1ncn2C[C@@H](O)[C@@H](O)C(=O)O | > 50 | > 50
Cc1ccc(NC(=O)CC2COc3ccccc3O2)cc1Cl (configuration not stated) | > 50 | > 50
CC(C)n1nc(-c2cc3c(Cl)cccc3[nH]2)c2c(N)ncnc21 | > 50 | > 50
Cc1cc(Nc2ccncc2)n2nc(C)c(-c3ccccc3Cl)c2n1 | > 50 | > 50
CC(C)/N=c1\cc2n(-c3ccc(Cl)cc3)c3ccccc3nc-2cc1Nc1ccc(Cl)cc1 | > 50 | > 50
CCN(CC)S(=O)(=O)c1ccc(C(=O)Nc2cc(C)nn2-c2nc(C)c(C)c(=O)[nH]2)cc1 | 50 (≈ 22.9 µg/mL) | 50 (≈ 22.9 µg/mL)
c1cc(C2=NCCN2)cc(-c2cc(-c3ccc(C4=NCCN4)cc3)no2)c1 | > 50 | > 50
Cc1nc(-c2ccccn2)nc(N2CCC(Cc3ccccc3)C2)c1Cl (configuration not stated) | > 50 | > 50
COc1cc(C2=NCCN2)ccc1-n1cc(-c2cccc(C3=NCCN3)c2)nn1 | > 50 | > 50
CCc1cc(=O)n(C)c(SC(C)C(=O)Nc2ccc(F)cc2)n1 (configuration not stated) | > 50 | > 50
CS(=O)(=O)N1CCC(CCn2nc(Cc3cccc4ccccc34)c3c(N)ncnc32)CC1 | > 50 | > 50
O=C(Nc1cccc(-c2ccc(NCCCN3CCCC3)nc2)c1)c1ccccc1 | > 50 | > 50
CNC(=O)c1cc(S(=O)(=O)N2CCN(c3ccccn3)CC2)cs1 | > 50 | > 50
COc1cc(C2=NCCN2)cc2cc(-c3ccc(C4=NCCN4)cc3)oc12 | > 50 | > 50
Cc1ccc2nc(Cl)c(CNCc3cccs3)cc2c1 | > 50 | > 50
CCOC(=O)c1c(NC(=O)c2c(F)c(F)c(F)c(F)c2F)sc(C(N)=O)c1C | > 50 | > 50

Structure (SMILES) | minimum inhibitory concentration [1] [µM] | minimum inhibitory concentration [2] [µM]
COc1ccc(Nc2ccccc2NC(=O)c2ccc(O)nc2)cc1 | > 50 | > 50
O=C(NC1CC1)c1ccc(CSCc2ccccc2Cl)o1 | > 50 | > 50
COc1ccc(C2=NCCN2)cc1-c1cn(-c2cccc(C3=NCCN3)c2)nn1 | > 50 | > 50
COCC(C)NC(=O)CSc1ncnc2sc(-c3ccccc3)cc12 (configuration not stated) | > 50 | > 50
O=C(c1[nH]nc2c1CCCC2)N1CCN(Cc2ccc3c(c2)OCO3)CC1 | > 50 | > 50
CN1CCN(S(=O)(=O)c2ccc(-c3ccc4c(Nc5ncc(Cl)cn5)ccnc4c3)cc2)CC1 | > 50 | > 50
Cc1ccccc1C(=O)N1N=C(Nc2ccccc2)SC1(C)C | > 50 | > 50
NCC(c1cccs1)S(=O)(=O)c1ccccc1 (configuration not stated) | > 50 | > 50
Cc1cccc(Cn2ccc(NC(=O)c3ccc4c(c3)OCO4)n2)c1 | > 50 | > 50
CCCc1ccc(S(=O)(=O)Nc2ccc(CN3CCN(CC4CC4)CC3)cc2)cc1 | > 50 | > 50
Cc1ccc(S(=O)(=O)N2CCN(C(=O)c3cc(-c4ccccc4)n[nH]3)CC2)cc1 | > 50 | > 50
COc1ccc(CCN2CCC(NCc3cccc(N(C)C)c3)CC2)cc1 | > 50 | > 50
COc1cncc(-c2cncc(N3CCN(c4ccncc4)CC3)n2)c1 | > 50 | > 50
O=C1COCc2ccc(Br)cc2N1Cc1ccc(C(F)(F)F)cc1 | > 50 | > 50
CCc1nn(C)c(C(=O)NCc2ccc(Oc3ccc(C)cc3)cc2)c1Cl | > 50 | > 50
Cc1ccc2[nH]c(C3CCCNC3)c(-c3ccncc3)c2c1 (configuration not stated) | > 50 | > 50
Nc1ncc(-c2ccc(C(F)(F)F)nc2)cc1-c1ccc(C(F)(F)F)nc1 | > 50 | > 50
CC(C)(C(=O)Nc1ccc(F)cc1)n1cc(-c2ccccc2F)cn1 | > 50 | > 50
O=C(NC1CC1)c1ccc(N2CCC(Cc3ccccc3)CC2)nc1 | > 50 | > 50
CC(Oc1cccc(Cl)c1)C(=O)Nc1ccc2oc(-c3ccncc3)nc2c1 (configuration not stated) | > 50 | > 50
NS(=O)(=O)c1cccc(-c2ccc3ncc(N4CCOCC4)nc3c2)c1 | > 50 | > 50
CC(C)c1ncc(-c2ccncc2)c([C@H]2CC[C@H](CNC(=O)c3cccnc3)CC2)n1 | > 50 | > 50
Cc1ccccc1CN1CCC(O)(c2ccc(Cl)c(C(F)(F)F)c2)CC1 | > 50 | > 50

Source: the supplement of paper PMC6206229
